From PubChem BioAssay AID1259407 (Chemical Carcinogenesis Research Information System (CCRIS), 2018)
The source made the active and inactive calls. The rule behind the calls is not given here.

Tested on: CCRIS mutagenicity, Ames/micronucleus/aberration tests
Assay: CCRIS mutagenicity studies

Measured: mutagenic call

Nc1ccc(Cl)cc1
active: Test System: AMES SALMONELLA TYPHIMURIUM, Strain/Indicator: TA98, Metabolic Activation: HAMSTER, LIVER, S-9 (10%), AROCLOR 1254, Method: PREINCUBATION active; positive | Test System: AMES SALMONELLA TYPHIMURIUM, Strain/Indicator: TA98, Metabolic Activation: HAMSTER, LIVER, S-9, AROCLOR 1254, Method: STANDARD PLATE active; positive | Test System: AMES SALMONELLA TYPHIMURIUM, Strain/Indicator: TA98, Metabolic Activation: RAT, LIVER, S-9 (5%, 10% OR 30%), AROCLOR 1254, Method: PREINCUBATION active; positive | Test System: MOUSE LYMPHOMA, Strain/Indicator: L5178Y (TK+/TK-), Metabolic Activation: NONE, Method: SUSPENSION/PLATE active; positive | Test System: MOUSE LYMPHOMA, Strain/Indicator: L5178Y (TK+/TK-), Metabolic Activation: RAT, LIVER, S-9, AROCLOR 1254, Method: SUSPENSION/PLATE active; positive | Test System: Mouse lymphoma, Strain/Indicator: L5178Y (tk+/tk-), Metabolic Activation: None, Method: Suspension/plate active; equivocal (previous evaluation positive) | Test System: Mouse lymphoma, Strain/Indicator: T5178Y (tk+/tk-), Metabolic Activation: Rat, Liver, S-9, Aroclor 1254, Method: Suspension/plate active; inconclusive (previous evaluation positive)
inactive: End Point: IN VITRO MICRONUCLEUS, Test System: CHL/IU CELLS, Metabolic Activation: RAT, LIVER, S-9, PHENOBARBITAL AND 5,6-BENZOFLAVONE inactive; negative | Test System: AMES SALMONELLA TYPHIMURIUM, Strain/Indicator: TA97, Metabolic Activation: HAMSTER, LIVER, S-9, AROCLOR 1254, Method: PREINCUBATION inactive; negative | Test System: AMES SALMONELLA TYPHIMURIUM, Strain/Indicator: TA97, Metabolic Activation: NONE, Method: PREINCUBATION inactive; negative | Test System: AMES SALMONELLA TYPHIMURIUM, Strain/Indicator: TA97, Metabolic Activation: RAT, LIVER, S-9, AROCLOR 1254, Method: PREINCUBATION inactive; negative | Test System: AMES SALMONELLA TYPHIMURIUM, Strain/Indicator: TA98, Metabolic Activation: NONE, Method: PREINCUBATION inactive; negative | Test System: AMES SALMONELLA TYPHIMURIUM, Strain/Indicator: TA98, Metabolic Activation: NONE, Method: SPOT TEST inactive; negative | Test System: AMES SALMONELLA TYPHIMURIUM, Strain/Indicator: TA98, Metabolic Activation: RAT, LIVER, S-9, AROCLOR 1254, Method: SPOT TEST inactive; negative | Test System: AMES SALMONELLA TYPHIMURIUM, Strain/Indicator: TA98, Metabolic Activation: RAT, LIVER, S-9, SODIUM PHENOBARBITONE, Method: SPOT TEST inactive; negative | Test System: AMES SALMONELLA TYPHIMURIUM, Strain/Indicator: TA98, Metabolic Activation: RAT, LIVER, S-9, SODIUM PHENOBARBITONE, Method: STANDARD PLATE inactive; negative | Test System: AMES SALMONELLA TYPHIMURIUM, Strain/Indicator: TA100, Metabolic Activation: HAMSTER, LIVER, S-9 (5% OR 10%), AROCLOR 1254, Method: PREINCUBATION inactive; negative | Test System: AMES SALMONELLA TYPHIMURIUM, Strain/Indicator: TA100, Metabolic Activation: HAMSTER, LIVER, S-9, AROCLOR 1254, Method: PREINCUBATION inactive; negative | Test System: AMES SALMONELLA TYPHIMURIUM, Strain/Indicator: TA100, Metabolic Activation: HAMSTER, LIVER, S-9, AROCLOR 1254, Method: STANDARD PLATE inactive; negative | Test System: AMES SALMONELLA TYPHIMURIUM, Strain/Indicator: TA100, Metabolic Activation: NONE, Method: PREINCUBATION inactive; negative | Test System: AMES SALMONELLA TYPHIMURIUM, Strain/Indicator: TA100, Metabolic Activation: NONE, Method: SPOT TEST inactive; negative | Test System: AMES SALMONELLA TYPHIMURIUM, Strain/Indicator: TA100, Metabolic Activation: RAT, LIVER, S-9 (5% OR 10%), AROCLOR 1254, Method: PREINCUBATION inactive; negative | Test System: AMES SALMONELLA TYPHIMURIUM, Strain/Indicator: TA100, Metabolic Activation: RAT, LIVER, S-9 (30%), AROCLOR 1254, Method: PREINCUBATION inactive; negative | Test System: AMES SALMONELLA TYPHIMURIUM, Strain/Indicator: TA100, Metabolic Activation: RAT, LIVER, S-9, AROCLOR 1254, Method: PREINCUBATION inactive; negative | Test System: AMES SALMONELLA TYPHIMURIUM, Strain/Indicator: TA100, Metabolic Activation: RAT, LIVER, S-9, AROCLOR 1254, Method: SPOT TEST inactive; negative | Test System: AMES SALMONELLA TYPHIMURIUM, Strain/Indicator: TA100, Metabolic Activation: RAT, LIVER, S-9, AROCLOR 1254, Method: STANDARD PLATE inactive; negative | Test System: AMES SALMONELLA TYPHIMURIUM, Strain/Indicator: TA100, Metabolic Activation: RAT, LIVER, S-9, SODIUM PHENOBARBITONE, Method: SPOT TEST inactive; negative | Test System: AMES SALMONELLA TYPHIMURIUM, Strain/Indicator: TA100, Metabolic Activation: RAT, LIVER, S-9, SODIUM PHENOBARBITONE, Method: STANDARD PLATE inactive; negative | Test System: AMES SALMONELLA TYPHIMURIUM, Strain/Indicator: TA1535, Metabolic Activation: HAMSTER, LIVER, S-9, AROCLOR 1254, Method: PREINCUBATION inactive; negative | Test System: AMES SALMONELLA TYPHIMURIUM, Strain/Indicator: TA1535, Metabolic Activation: NONE, Method: PREINCUBATION inactive; negative | Test System: AMES SALMONELLA TYPHIMURIUM, Strain/Indicator: TA1535, Metabolic Activation: NONE, Method: SPOT TEST inactive; negative | Test System: AMES SALMONELLA TYPHIMURIUM, Strain/Indicator: TA1535, Metabolic Activation: NONE, Method: STANDARD PLATE inactive; negative | Test System: AMES SALMONELLA TYPHIMURIUM, Strain/Indicator: TA1535, Metabolic Activation: RAT, LIVER, S-9, AROCLOR 1254, Method: PREINCUBATION inactive; negative | Test System: AMES SALMONELLA TYPHIMURIUM, Strain/Indicator: TA1535, Metabolic Activation: RAT, LIVER, S-9, AROCLOR 1254, Method: SPOT TEST inactive; negative | Test System: AMES SALMONELLA TYPHIMURIUM, Strain/Indicator: TA1535, Metabolic Activation: RAT, LIVER, S-9, AROCLOR 1254, Method: STANDARD PLATE inactive; negative | Test System: AMES SALMONELLA TYPHIMURIUM, Strain/Indicator: TA1535, Metabolic Activation: RAT, LIVER, S-9, SODIUM PHENOBARBITONE, Method: SPOT TEST inactive; negative | Test System: AMES SALMONELLA TYPHIMURIUM, Strain/Indicator: TA1535, Metabolic Activation: RAT, LIVER, S-9, SODIUM PHENOBARBITONE, Method: STANDARD PLATE inactive; negative | Test System: AMES SALMONELLA TYPHIMURIUM, Strain/Indicator: TA1537, Metabolic Activation: HAMSTER, LIVER, S-9, AROCLOR 1254, Method: PREINCUBATION inactive; negative | Test System: AMES SALMONELLA TYPHIMURIUM, Strain/Indicator: TA1537, Metabolic Activation: NONE, Method: PREINCUBATION inactive; negative | Test System: AMES SALMONELLA TYPHIMURIUM, Strain/Indicator: TA1537, Metabolic Activation: NONE, Method: SPOT TEST inactive; negative | Test System: AMES SALMONELLA TYPHIMURIUM, Strain/Indicator: TA1537, Metabolic Activation: NONE, Method: STANDARD PLATE inactive; negative | Test System: AMES SALMONELLA TYPHIMURIUM, Strain/Indicator: TA1537, Metabolic Activation: RAT, LIVER, S-9, AROCLOR 1254, Method: PREINCUBATION inactive; negative | Test System: AMES SALMONELLA TYPHIMURIUM, Strain/Indicator: TA1537, Metabolic Activation: RAT, LIVER, S-9, AROCLOR 1254, Method: SPOT TEST inactive; negative | Test System: AMES SALMONELLA TYPHIMURIUM, Strain/Indicator: TA1537, Metabolic Activation: RAT, LIVER, S-9, AROCLOR 1254, Method: STANDARD PLATE inactive; negative | Test System: AMES SALMONELLA TYPHIMURIUM, Strain/Indicator: TA1537, Metabolic Activation: RAT, LIVER, S-9, SODIUM PHENOBARBITONE, Method: SPOT TEST inactive; negative | Test System: AMES SALMONELLA TYPHIMURIUM, Strain/Indicator: TA1537, Metabolic Activation: RAT, LIVER, S-9, SODIUM PHENOBARBITONE, Method: STANDARD PLATE inactive; negative | Test System: AMES SALMONELLA TYPHIMURIUM, Strain/Indicator: TA1538, Metabolic Activation: NONE, Method: SPOT TEST inactive; negative | Test System: AMES SALMONELLA TYPHIMURIUM, Strain/Indicator: TA1538, Metabolic Activation: NONE, Method: STANDARD PLATE inactive; negative | Test System: AMES SALMONELLA TYPHIMURIUM, Strain/Indicator: TA1538, Metabolic Activation: RAT, LIVER, S-9, AROCLOR 1254, Method: SPOT TEST inactive; negative | Test System: AMES SALMONELLA TYPHIMURIUM, Strain/Indicator: TA1538, Metabolic Activation: RAT, LIVER, S-9, AROCLOR 1254, Method: STANDARD PLATE inactive; negative | Test System: AMES SALMONELLA TYPHIMURIUM, Strain/Indicator: TA1538, Metabolic Activation: RAT, LIVER, S-9, SODIUM PHENOBARBITONE, Method: SPOT TEST inactive; negative | Test System: AMES SALMONELLA TYPHIMURIUM, Strain/Indicator: TA1538, Metabolic Activation: RAT, LIVER, S-9, SODIUM PHENOBARBITONE, Method: STANDARD PLATE inactive; negative | Test System: E. COLI, Strain/Indicator: WP2 UVRA(P), Metabolic Activation: NONE, Method: STANDARD PLATE inactive; negative | Test System: E. COLI, Strain/Indicator: WP2 UVRA, Metabolic Activation: NONE, Method: FLUCTUATION TEST inactive; negative | Test System: E. COLI, Strain/Indicator: WP2 UVRA, Metabolic Activation: NONE, Method: STANDARD PLATE inactive; negative
